Experimental data reported in US8298176B2, “Flow-induced delivery from a drug mass” (priority 2006, dated 2012).

Tests used:
[1] = cited from earlier work
[2] = Dissolution of gacyclidine base pellets in a continuous flow reactor (elution with Ringer's solution containing hydrochloric acid); assay type: physicochemical; conditions: for pH of the eluted drug solution: room temperature (23±2° C.)
Method: A drug chamber similar to the one illustrated in FIGS. 2 and 4 was loaded with 11 pellets of gacyclidine base having a combined mass of 18 mg. This drug-loaded chamber was eluted at a flow rate of 20 μL/hr at room temperature (23±2° C.) using a MiniMed 508 syringe pump (available from Medtronics MiniMed of Northridge, Calif.). The syringe was loaded with 3 mL of Ringer's solution containing 0.05 to 3 mM hydrochloric acid. The eluted volume was collected in PTFE tubing attached to the pump drug capsule assembly, after a 3-D antibacterial filter. The pH of this solution was determined by use of a pH meter equipped with a Calomel electrode. Drug concentration was determined by HPLC.
The highest pH of the eluted drug solution (5.9) was obtained at 0.05 mM hydrochloric acid, and the lowest pH of the eluted drug solution (5.6) was obtained at 3 mM hydrochloric acid. These pH values indicate quantitative conversion of the hydrochloric acid to the drug salt and are consistent with the pH expected for solutions of the hydrochloride salt.

[3] = body temperature / in the presence of water; cited from earlier work

Structure (SMILES)	water solubility (in words) [1]	correlation in gacyclidine concentration per hydrochloric acid concentration used for elution ([2]; 0.05 to 3 mM HCl in Ringer's solution, 20 μL/hr, linear fit of FIG. 26, drug by HPLC)	pH of the eluted drug solution ([2]; eluted with Ringer's solution containing 0.05 mM hydrochloric acid, 20 μL/hr, highest pH)	pH of the eluted drug solution ([2]; eluted with Ringer's solution containing 3 mM hydrochloric acid, 20 μL/hr, lowest pH)	intercept at zero concentration of hydrochloric acid ([2]; linear fit of FIG. 26, gacyclidine concentration in eluate)	stability (in words) [3]
CCN(CC)C(=O)SC[C@H](NC(=O)CC[C@H](N)C(=O)O)C(=O)NCC(=O)O [carbamathione]	sparingly soluble in water					
CC1CCCCC1(c1cccs1)N1CCCCC1 (stereo not shown) [gacyclidine]	sparingly soluble in water	0.976±0.049	5.9	5.6	0.0014 ± 0.0061 mM	much more stable than its acidic form in the presence of water
C[C@H]1CCCC[C@@]1(c1cccs1)N1CCCCC1.Cl [hydrochloride salt of gacyclidine]	highly water soluble					unstable at body temperature
CC1(C)O[C@@H]2C[C@H]3[C@@H]4CCC5=CC(=O)C=C[C@]5(C)[C@@]4(F)[C@@H](O)C[C@]3(C)[C@]2(C(=O)CO)O1 [triamcinolone acetonide]	very low water solubility					
